Source: paper PMC12040169 (PLOS Biology, 2025)

Assay: in vitro
Settings: human, hela cells, % viability

Structure (SMILES)	viability at 28.5 h, 10 µM [%]
C=CCn1c(Cc2csc(NC(=O)CCc3nc4ccccc4c(=O)[nH]3)n2)n[nH]c1=S [CBK297888]	88.8
COc1ccc2cc(OCCO)ccc2c1 [CBK176054]	63.6
O=C(Nc1ccc(F)cc1)c1cccc(NS(=O)(=O)c2cc(Br)c(Cl)s2)c1 [CBK050410]	93.4
Cc1ccccc1Nc1nc(N)nc(CN2CCOC3CCCC32)n1 (centres unmarked) [CBK305181]	97.6
COc1cc(C2C(C(=O)c3cccs3)=C(O)C(=O)N2Cc2cccnc2)ccc1O (centres unmarked) [CBK264605]	110
CC1CCc2nc3ccccc3c(C(=O)N(C)Cc3cnn(C)c3)c2C1 (centres unmarked) [CBK305749]	96.9
Cc1cccc(CC(=O)N2CCCC2c2n[nH]cc2-c2ccncc2)c1 (centres unmarked) [CBK283447]	90.7
CC(C)=NNC(=N)Nc1ccccc1 [CBK021452]	90.4
CC(=O)N[C@@H](CC[S+](C)[O-])C(=O)N1CCC2(C/C=C/C[C@@H]3COCC[C@@H]3NC(=O)[C@@H](CC(C)C)NC2=O)CC1 (some centres unmarked) [CBK292192]	105
CCOC(=O)CC(C)NS(=O)(=O)c1ccc(OC(F)(F)F)cc1 (centres unmarked) [CBK044954]	104
Cc1cc(COC(=O)NCc2ccncc2)cc(C)n1 [CBK200136]	99.4
CCc1nc2ccc(C(=O)N(C)Cc3ccco3)cn2c1N(C)Cc1cccs1 [CBK145552]	98.5
Cc1cc(S(=O)(=O)NC2CCCCC2)ccc1OCC(=O)O [CBK267832]	104
O=S(=O)(CCN1CCC(Cc2ccccc2)CC1)c1ccccc1 [CBK126386]	94.9
CC(=O)Nc1ccc(-c2nc(-c3ccc(-c4ccccc4)cc3)c(-c3ccc(-c4ccccc4)cc3)[nH]2)cc1 [CBK262620]	87.3
O=C1c2ccccc2C(=O)N1CCc1c[nH]c2ccc(O)cc12 [CBK086794]	76
Cc1c(N)c(=O)n2nc(C(F)(F)F)nc2n1C [CBK020172]	90.4
O=C(CCNS(=O)(=O)c1ccccc1)N1CCC(Cc2ccccc2)CC1 [CBK270091]	84.9
Cc1cc(C)n(CC(C)CNC(=O)NCCN2CCCCCC2=O)n1 (centres unmarked) [CBK305389]	92
CC(CCc1ccccc1)N(C)CCN(C)C (centres unmarked) [CBK261933]	80.5
COc1ccc(Cc2cccc(C3CCN(C(=O)Cc4ccc(F)cc4)CC3)n2)cc1 [CBK286225]	95.6
CCc1nnc(NC(=O)c2cccc(F)c2)s1 [CBK273362]	90.4

Structure (SMILES)	viability at 28.5 h, 10 µM [%]
Cn1c2c(c(=O)n(C)c1=O)[C@H]1[C@H](O)[C@H](O)C[C@H]1C1(CCC1)N2 [CBK303250]	93.6
CCOC(=O)c1ccc(C2=NCCC2)[nH]1 [CBK011191]	95.1
CC1CC(C)CN(CCCNS(=O)(=O)c2ccc3c(c2)oc(=O)n3C)C1 (centres unmarked) [CBK268695]	104
CSc1ccc(CNC(=O)c2sc3nc(C)nc(N4CCCC4)c3c2C)cc1 [CBK294432]	96.8
CCC(O)Cn1nc(CCSC)nc1-c1ccc2[nH]ccc2c1 (centres unmarked) [CBK307526]	104
CC(=O)NCc1cccc(-c2cncc(C(=O)Nc3ccc4c(c3)OCCO4)c2)c1 [CBK161009T]	82.1
Cn1c(CN2CCN(C3CCCC3)C(=O)C2)nc2ccccc21 [CBK281577]	100
Cc1nc2cc(C(=O)O)ccc2[nH]1 [CBK220035]	84.6
COc1ccc(CSCC(N)C(=O)O)cc1Br (centres unmarked) [CBK264026]	94
Cc1cc(COc2nc3ccccc3nc2NC(C)C(C)C)no1 (centres unmarked) [CBK174007]	117
CCOC(=O)c1ccc(N2CC(C(=O)O)CC2=O)cc1 (centres unmarked) [CBK268106]	115
O=C(O)c1cc(-n2c(S)nnc2-c2ccc3ccccc3n2)ccc1Cl [CBK269512]	86.1
CN1CC=C(/C=C/c2ccc(Sc3ncccn3)o2)CC1 [CBK283797]	82.3
CC1(C)C(CC(=O)NC2CCCCC2)CC1C(=O)NC1CCCCC1 (centres unmarked) [CBK009260]	98.8
NC(=O)c1cccnc1-c1nc2ccccc2s1 [CBK287930]	80
COc1ccc(OCCCOc2ccccc2C(C)C)cc1 [CBK026366]	90.8
NC(=O)C1CCCN(S(=O)(=O)c2ccc(S(N)(=O)=O)cc2)C1 (centres unmarked) [CBK266312]	96.2
Cc1ccc(NC(=O)CN2C(=O)S/C(=C\c3cc(C)n(-c4ccc(C(=O)O)cc4)c3C)C2=O)cc1 [CBK264465]	91.6
CCn1cc(CN2CCCN(C(=O)c3cccn(C)c3=O)CC2)cn1 [CBK305375]	106
CNC1CCCCCC1(O)c1ccccc1 (centres unmarked) [CBK005073]	99.2
CN1CCN(Cc2c(-c3ccc(F)cc3)[nH]c3ncccc23)CC1 [CBK285335]	85.4
CCOc1ccc(NC(=O)N(CCO)Cc2nccn2C)cc1C#N [CBK307634]	82.6
